From patent US6339100B1, “Methods for inhibiting mastocytosis” (The Trustees of Columbia University in the City of New York, priority 1999, dated 2002)

Key:
[1] = test system: wild-type KIT; assay: Phosphorylation of wild-type KIT expressed in COS cells (anti-phosphotyrosine blot); format: cell-based; conditions: 5 μM, 30 min, SCF 100 ng/ml 10 min
Protocol: (§1) FIG. 1: Effects of indolinone derivatives on phosphorylation of wild-type and mutant KITs. […] The compound with the structure VII or structure VI are effective against KIT containing an activating juxtamembrane domain mutation in C2 cells.
(§2) KIT activity was determined by in vitro phosphorylation, as previously described (Ma et al, 1999a). The neoplastic mast cell line C2 and P815 have been previously described (Dunn et al, 1957; Lazarus et al, 1986; DeVinney and Gold, 1990), and their activating c-KIT mutations characterized (Tsujimura et al, 1994; Ma et al, 1999a). To determine cell proliferation and viability, cells from triplicate cultures were stained with trypan blue and counted in a hemocytometer. All experiments were repeated at least three times.

[2] = test system: KIT with juxtamembrane insertion mutation (C2 KIT); assay: Constitutive phosphorylation of mutant KIT in C2 dog mastocytoma cells; format: cell-based; conditions: 5 μM
Protocol: as §1, §2
The effects of these compounds on constitutive activation of KIT mutants expressed by neoplastic mast cells were then tested. For activating juxtamembrane mutations, the C2 dog mastocytoma cell line was studied (Lazarus et al, 1986; DeVinney and Gold, 1990), in which KIT is constitutively active due to a juxtamembrane insertion mutation (Ma et al, 1999a). […] The effects of these compounds on constitutive phosphorylation of KIT bearing in the juxtamembrane region either deletion of Trp556-Lys557 or substitution of Pro for Leu575, mutations previously identified in dog mastocytomas (Ma et al, 1999a) were also examined.

[3] = molecular target: T1, KIT with substitution of Tyr for Asp814 (P815 KIT) (Mus musculus, UniProt P05532, D818Y); assay: Phosphorylation of mutant KIT in P815 cells; format: cell-based, murine; conditions: 40 μM, 30 min
T1 construct: mutant KITs expressed in C2 and P815 cells; endogenous in cells; host or cells: P815 murine mastocytoma cells
T1 sequence (P05532 25-975 isoform P05532-2 D814Y): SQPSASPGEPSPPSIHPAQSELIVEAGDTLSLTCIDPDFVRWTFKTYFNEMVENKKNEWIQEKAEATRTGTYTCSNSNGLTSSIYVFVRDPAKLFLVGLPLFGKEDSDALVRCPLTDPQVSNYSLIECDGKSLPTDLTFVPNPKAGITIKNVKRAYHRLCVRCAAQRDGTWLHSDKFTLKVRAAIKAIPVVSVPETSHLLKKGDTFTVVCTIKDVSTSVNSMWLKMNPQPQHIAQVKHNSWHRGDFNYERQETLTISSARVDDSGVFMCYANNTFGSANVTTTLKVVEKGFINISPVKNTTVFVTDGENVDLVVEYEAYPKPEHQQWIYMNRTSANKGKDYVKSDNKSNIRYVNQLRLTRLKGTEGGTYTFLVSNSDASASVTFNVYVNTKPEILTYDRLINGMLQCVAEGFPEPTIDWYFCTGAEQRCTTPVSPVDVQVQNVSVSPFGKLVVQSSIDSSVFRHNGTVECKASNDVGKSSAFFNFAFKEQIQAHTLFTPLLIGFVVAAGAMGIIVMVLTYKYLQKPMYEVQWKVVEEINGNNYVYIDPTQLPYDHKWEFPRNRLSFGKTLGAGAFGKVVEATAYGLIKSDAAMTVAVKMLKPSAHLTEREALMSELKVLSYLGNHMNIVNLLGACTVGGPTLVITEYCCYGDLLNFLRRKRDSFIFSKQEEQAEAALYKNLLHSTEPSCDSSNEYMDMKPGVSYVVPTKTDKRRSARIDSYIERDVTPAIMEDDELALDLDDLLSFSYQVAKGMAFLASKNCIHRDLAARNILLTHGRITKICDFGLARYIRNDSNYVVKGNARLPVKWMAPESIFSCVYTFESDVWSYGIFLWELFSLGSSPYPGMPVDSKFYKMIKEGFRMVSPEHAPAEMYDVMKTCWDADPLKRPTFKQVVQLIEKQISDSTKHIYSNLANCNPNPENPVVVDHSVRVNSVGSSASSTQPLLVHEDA
Protocol: as §1, §2
For activating mutations in the kinase domain, the P815 murine mast cell tumor line (Dunn et al, 1957) was examined. P815 c-KIT contains a point mutation resulting in substitution of Tyr for Asp814, the equivalent position of human Asp816, which causes constitutive receptor activation (Tsujimura et al, 1994).

[4] = test system: C2 cells; assay: C2 cell proliferation and viability (trypan blue counting); format: cell-based, dog; conditions: treated daily with 1 μM
Protocol: (§3) FIG. 2: Effects of indolinone derivatives on neoplastic mast cell growth. […] Results (mean±SEM) represent averages of triplicate cultures.
as §2

[5] = test system: P815 cells; assay: P815 cell proliferation and viability (trypan blue counting); format: cell-based, murine; conditions: treated daily with 10 μM
Protocol: as §3, §2

[6] = test system: platelet-derived growth factor receptor; conditions: cited from earlier work
[7] = test system: fibroblast growth factor receptor; conditions: cited from earlier work
[8] = molecular target: insulin receptor (Homo sapiens, UniProt P06213); conditions: cited from earlier work
Sequence of insulin receptor (P06213 28-1382, species assumed): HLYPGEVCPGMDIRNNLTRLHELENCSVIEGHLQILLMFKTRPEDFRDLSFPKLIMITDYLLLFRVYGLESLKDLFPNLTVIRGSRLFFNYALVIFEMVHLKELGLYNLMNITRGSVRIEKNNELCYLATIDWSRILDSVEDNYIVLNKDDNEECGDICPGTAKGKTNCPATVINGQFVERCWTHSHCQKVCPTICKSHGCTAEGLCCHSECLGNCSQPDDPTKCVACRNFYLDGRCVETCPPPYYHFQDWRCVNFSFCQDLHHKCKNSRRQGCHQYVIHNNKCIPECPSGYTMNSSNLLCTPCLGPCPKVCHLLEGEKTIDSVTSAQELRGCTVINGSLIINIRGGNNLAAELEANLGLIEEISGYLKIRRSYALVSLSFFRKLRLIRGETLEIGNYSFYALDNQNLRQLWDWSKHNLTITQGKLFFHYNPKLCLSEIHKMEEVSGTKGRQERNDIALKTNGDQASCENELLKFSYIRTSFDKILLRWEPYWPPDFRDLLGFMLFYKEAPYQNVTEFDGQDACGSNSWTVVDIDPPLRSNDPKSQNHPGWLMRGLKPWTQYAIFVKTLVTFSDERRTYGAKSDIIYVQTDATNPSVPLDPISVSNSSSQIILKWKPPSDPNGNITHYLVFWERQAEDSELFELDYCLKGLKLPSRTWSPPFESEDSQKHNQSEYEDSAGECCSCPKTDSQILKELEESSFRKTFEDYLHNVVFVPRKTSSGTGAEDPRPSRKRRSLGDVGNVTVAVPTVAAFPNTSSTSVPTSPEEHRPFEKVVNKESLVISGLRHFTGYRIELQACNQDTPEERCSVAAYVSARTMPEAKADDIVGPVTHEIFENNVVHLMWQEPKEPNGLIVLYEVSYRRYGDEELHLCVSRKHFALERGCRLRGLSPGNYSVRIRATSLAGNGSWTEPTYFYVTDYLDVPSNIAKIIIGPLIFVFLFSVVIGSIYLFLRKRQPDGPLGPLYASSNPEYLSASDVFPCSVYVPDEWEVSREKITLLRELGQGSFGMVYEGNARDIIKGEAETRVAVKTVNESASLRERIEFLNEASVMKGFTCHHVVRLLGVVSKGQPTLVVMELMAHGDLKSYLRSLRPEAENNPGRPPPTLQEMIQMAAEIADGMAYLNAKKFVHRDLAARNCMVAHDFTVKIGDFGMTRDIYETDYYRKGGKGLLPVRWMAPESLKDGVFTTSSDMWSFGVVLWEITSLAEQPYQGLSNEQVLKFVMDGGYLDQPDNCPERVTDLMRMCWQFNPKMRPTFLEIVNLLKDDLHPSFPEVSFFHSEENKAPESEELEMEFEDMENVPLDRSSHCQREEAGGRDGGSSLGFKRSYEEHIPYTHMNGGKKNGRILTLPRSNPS

inhibition of phosphorylation of the P815 KIT mutant [3]: not effectively inhibiting
SMILES: O=CN1CCN(c2ccc(/C=C3/C(=O)Nc4ccccc43)cc2)CC1 [structure VII]
effect on tyrosine phosphorylation of the wild-type receptor [1]: substantially reduce
reduction of the constitutive C2 KIT phosphorylation [2]: approximately 50%
effect on C2 cell proliferation [4]: killed
effect on P815 cell proliferation [5]: killed
inhibition of platelet-derived growth factor receptor [6]: effective
inhibition of fibroblast growth factor receptor [7]: effective
inhibition of insulin receptor [8]: effective
